Assay results as given in patent US20100029542A1, “PROTEIN STERILISATION BY RADIATION AND ADDITION OF A STABILISING COMPOSITION” (priority 2006, published 2010).

How the values were obtained:
human growth hormone = biological target: T1, human growth hormone (Homo sapiens, UniProt P01241); assay: Recovery of structural integrity of human growth hormone in dry formulations following gamma irradiation (HPLC); type: physicochemical; conditions: Table 4, prior-art antioxidants; structural integrity by HPLC; human growth hormone 2.5 mg mL^−1 prior to drying; dry; 25-40 kGy, ambient temperature
T1 construct: purchased National Institute of Biological Standards and Control; further samples on prescription from a GP surgery
T1 sequence (P01241 27-217): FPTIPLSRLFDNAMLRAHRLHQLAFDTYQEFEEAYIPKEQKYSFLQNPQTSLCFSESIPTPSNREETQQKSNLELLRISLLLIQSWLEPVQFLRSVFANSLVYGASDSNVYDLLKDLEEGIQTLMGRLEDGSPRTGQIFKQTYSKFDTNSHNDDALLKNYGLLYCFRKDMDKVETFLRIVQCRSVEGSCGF

glucose oxidase = biological target: T2, glucose oxidase (Aspergillus niger, UniProt P13006); assay: Activity recovery of glucose oxidase in dry formulations following gamma irradiation; type: physicochemical; conditions: glucose oxidase 350 μg mL^−1 prior to drying, dry, 25-40 kGy
T2 construct: purchased Biocatalysts G575P
T2 sequence (P13006 17-605): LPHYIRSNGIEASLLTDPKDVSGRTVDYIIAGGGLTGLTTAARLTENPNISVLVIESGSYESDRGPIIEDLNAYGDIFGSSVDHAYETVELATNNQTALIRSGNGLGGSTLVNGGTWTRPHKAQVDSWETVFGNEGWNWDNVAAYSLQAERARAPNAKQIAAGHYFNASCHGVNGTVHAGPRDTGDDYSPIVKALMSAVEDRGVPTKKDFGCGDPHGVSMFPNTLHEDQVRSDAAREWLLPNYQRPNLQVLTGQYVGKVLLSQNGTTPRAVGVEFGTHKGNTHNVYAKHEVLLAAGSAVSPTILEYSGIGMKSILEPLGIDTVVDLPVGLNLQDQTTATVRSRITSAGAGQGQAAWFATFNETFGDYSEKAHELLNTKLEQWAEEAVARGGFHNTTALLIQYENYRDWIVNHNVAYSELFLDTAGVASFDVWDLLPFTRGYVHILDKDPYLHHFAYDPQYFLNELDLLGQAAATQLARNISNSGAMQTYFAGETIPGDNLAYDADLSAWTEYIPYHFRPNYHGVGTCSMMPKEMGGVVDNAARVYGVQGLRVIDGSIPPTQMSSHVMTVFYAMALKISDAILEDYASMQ
Description: In each example, an aqueous solution of a protein was prepared with selected additives in an Eppendorf tube or in a glass vial. Water was removed from the formulation by drying under a stream of nitrogen at 30° C. and subsequent incubation at atmospheric pressure in the presence of a dessicant. The Eppendorf tubes or the glass vials were sealed and delivered to an industrial sterilisation service for gamma irradiation, with a dose range typical for sterile medical products. The gamma-irradiated samples were reconstituted on their return and analysed for protein activity or structural integrity. The results were compared with those achieved using control (i.e. non-irradiated) samples.
The dry samples (approx. 20 μg in an Eppendorf tube) were gamma-irradiated by an industry-standard commercial sterilising service provided by Isotron PLC (Swindon, Wilts, UK), using a Cobalt 60 gamma source at ambient temperature. The radiation dose was in the range of 25-40 kGy.
The original solutions (i.e. solutions prior to drying) contained 350 μg mL^−1 of glucose oxidase and typically the total of 100 mM of protective compounds (i.e. 100 mM in case of a single compound, 50 mM+50 mM in case of two compounds, 33.3 mM+33.3 mM+33.3 mM in the case of three compounds etc.). The solutions were dried and gamma irradiated. Following the gamma irradiation, the samples, both pre- and post-gamma irradiated, were assayed for glucose oxidase activity. This was performed according to the following procedure:
Water was added to the sample to achieve 350 μg mL^−1 of glucose oxidase. 50 μL of the solution was added to 50 mL of deionised water. The following solutions were then added: • 10 mL of reagent mix (5 parts of 0.1 M sodium phosphate, pH 6+4 parts 2% w/w starch+1 part of 1 mg/mL lactoperoxidase enzyme); • 5 mL of 100 mM potassium iodide; and • 5 mL of 20% w/w glucose solution.
These were mixed together quickly. Time=0 was counted from the addition of the glucose. After 5 min, 1 ml of 5 M aq. hydrochloric acid was added to stop the reaction. The absorbance was then read at 630 nm using a Unicam UV-visible spectrophotometer (Type: Helios gamma). If the colour intensity was too great to allow an accurate reading, the sample was diluted with a defined volume of deionised water to bring the colour back on scale. The results were expressed as percentage recovery, by reference to the absorbance measured in the pre-gamma irradiation samples.

Compound: CSCC[C@H](N)C(=O)O [Methionine]
- Structural integrity remaining after gamma-irradiation (HPLC) (human growth hormone): 69.7%
- Enzyme activity remaining after gamma-irradiation (glucose oxidase; Table 3, prior-art antioxidants, ambient temperature, vs non-irradiated): 61.3%
- Enzyme activity remaining after gamma-irradiation (glucose oxidase; Table 5, singlet oxygen scavengers, ambient temperature): 61.3%
- Enzyme activity remaining after gamma-irradiation (glucose oxidase; Table 9, superoxide scavengers): 61.3%
